Marks after values point to notes of the source that are not given here.
Legend:
FIT mRNA [1] = assay: Metabolic heat production by indirect calorimetry (FIG. 1); format: in vivo, Sprague Dawley rats; details: pair fed, last half of dark phase and majority of light phase
From the text: FIG. 1 is a graphical representation of metabolic heat production in Sprague Dawley rats after three days of FIT antisense-treatment compared to jumbled ad libitum fed and jumbled pair fed rats. *p<0.05 pair fed compared to jumbled group, #p<0.05 pair fed compared to FIT antisense-treated group, ̂p<0.05 compared to both jumbled and FIT antisense-treated groups. Data are mean ±SEM.
To further dissect the nature of the inability to reduce TEE levels after FIT antisense treatment, metabolic heat production was measured by indirect calorimetry.

melanocortin receptor = assay: Feeding response to ICV injection of SHU9119 after three days of ODN or saline infusion; format: in vivo, Sprague Dawley rats; details: mean ± SEM
From the text: To further analyse the link between FIT and the melanocortin system, the feeding response of Sprague Dawley rats to an ICV injection of SHU9119, a melanocortin receptor antagonist and known feeding stimulator was investigated. After three days of FIT antisense treatment, jumbled oligonucleotide or saline infusion, responses were compared to rats receiving an ICV injection of saline vehicle rather than SHU9119.

FIT mRNA [2] = assay: ICV infusion of FIT antisense ODN in Sprague Dawley rats: food intake and body weight; format: in vivo
Method: To confirm the appetite-suppressing and weight-reducing effects of central FIT suppression in an animal model other than P. obesus, the inventors performed the same experiments in Sprague Dawley rats. Male, 12 week old Sprague Dawley rats were infused with either saline, FIT antisense ODN, or jumbled ODN at 24 μg/day for four days. The sequence of the FIT antisense ODN and the jumbled ODN are the same as in Example 2 above.

FIT mRNA [3] = assay: Hypothalamic FIT gene expression by semi-quantitative RT-PCR in ICV antisense-treated rats; format: in vivo, Sprague Dawley rats; details: hypothalamus, ICV-treated Sprague Dawley rats, mean ± SEM
Method: To confirm endogenous suppression of FIT in antisense-treated Sprague Dawley rats, FIT mRNA in the hypothalamus of these animals was measured.

MC4R = molecular target: T1, MC4R (Rattus norvegicus, UniProt P70596); assay: Feeding response to MT II after ODN or saline infusion; format: in vivo, Sprague Dawley rats; details: mean ± SEM
T1 construct: from tissue; host or cells: living Sprague Dawley rats (brain)
T1 sequence (P70596 whole entry, the tested form may be a part): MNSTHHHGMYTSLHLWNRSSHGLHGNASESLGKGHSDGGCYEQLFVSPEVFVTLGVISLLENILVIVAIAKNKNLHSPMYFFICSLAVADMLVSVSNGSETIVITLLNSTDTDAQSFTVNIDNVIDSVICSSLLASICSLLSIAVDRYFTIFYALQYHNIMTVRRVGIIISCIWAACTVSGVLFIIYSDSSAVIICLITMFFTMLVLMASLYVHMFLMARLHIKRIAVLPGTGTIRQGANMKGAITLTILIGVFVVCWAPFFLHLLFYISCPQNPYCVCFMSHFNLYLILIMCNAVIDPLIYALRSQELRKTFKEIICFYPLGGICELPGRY
Method: To further investigate this relationship, antisense suppression of FIT in Sprague Dawley rats was again performed and these animals' responses to administration of the α-MSH analog MT II, a synthetic agonist of the MC4R and known suppressor of feeding. MT II effects on food intake and body weight in saline and jumbled ODN-treated control rats, as well as in FIT antisense-treated rats was measured.

FIT mRNA [4] = assay: Pair-feeding study with indirect calorimetry (24 h): body weight, food intake, total energy expenditure; format: in vivo, Sprague Dawley rats; details: mean ± SEM; for Day 0 BW: baseline
Method: To investigate the mechanism of weight loss after FIT antisense treatment, a group of Sprague Dawley rats were pair fed to the average daily food intake levels of FIT antisense-treated rats, and indirect calorimetry (24 h) was performed before and after FIT antisense or jumbled ODN ICV infusion.
Total energy expenditure (TEE) was calculated from measurements of oxygen consumption and carbon dioxide production using indirect calorimetry (Ferrannini, 1988). Due to differences in body weight between the three groups of rats, TEE levels were calculated relative to whole body mass of the animals. […] FIT antisense-treated rats therefore have an inappropriately high level of energy expenditure for their body weight.

FIT mRNA [5] = assay: ICV infusion of FIT antisense ODN in Psammomys obesus: food intake and body weight; format: in vivo
Method: To further investigate the orexigenic properties of FIT intracerebroventricular (ICV) antisense suppression of FIT was performed. This involved the infusion of FIT antisense oligonucleotides (ODNs) directly into the lateral ventricle space of the brain to suppress endogenous FIT mRNA levels. The effects of this treatment on food intake and body weight were measured and compared to control animals infused with a jumbled sequence ODN, or saline alone. 18 week old, male, lean, normal glucose tolerant (nGT) P. obesus animals were utilised for this study and infused with either saline, FIT antisense ODN, or jumbled ODN at 24 μg/day for four days. The sequence of the FIT antisense ODN was 5′-mu*mg*mg*mc*ma*g*a*a*t*t*g*c*a*mu*mu*mc*mc*mu*-3′, and the jumbled ODN 5′-mc*mg*mc*ma*mc*t*t*a*g*c*t*a*c*mu*mu*mg*mc*mu-3′, where m indicates the presence of a 2′O-Methyl-modified base, and * indicates a phosphorothioate linkage.

[6] = ICV 24 μg/day, day 1, mean ± SEM
[7] = ICV 24 μg/day, day 2, mean ± SEM
[8] = ICV 24 μg/day, day 3, mean ± SEM
[9] = ICV 24 μg/day, day 4, mean ± SEM
[10] = baseline body weight, mean ± SEM
[11] = change compared to day 0, mean ± SEM
[12] = not pair fed (jumbled group ad libitum fed)
[13] = pair fed to food intake of FIT antisense-treated rats

5′-mc*mg*mc*ma*mc*t*t*a*g*c*t*a*c*mu*mu*mg*mc*mu-3′ [Jumbled, reference compound]
metabolic heat production compared to jumbled-treated ad libitum fed and FIT antisense-treated rats (FIT mRNA [1]): significantly reduced heat production | Δ FI (melanocortin receptor; 48 hr food intake post minus pre injection): 0.03 ± 0.02 g/g BW | 48 hr FI post injection (melanocortin receptor; food intake relative to body weight, after ICV SHU9119 or vehicle injection): 0.13 ± 0.01 g/g BW | 48 hr FI pre injection (melanocortin receptor; food intake relative to body weight, during ICV infusion, before SHU9119 or vehicle injection): 0.10 ± 0.01 g/g BW | Cumulative food intake, Day 1 Food (FIT mRNA [2]; [6]): 18.7 ± 2.4 g | Cumulative food intake, Day 2 Food (FIT mRNA [2]; [7]): 44.7 ± 4.1 g | Cumulative food intake, Day 3 Food (FIT mRNA [2]; [8]): 72.6 ± 5.1 g | Cumulative food intake, Day 4 Food (FIT mRNA [2]; [9]): 101.5 ± 6.1 g | Day 1 BW (FIT mRNA [2]; ICV 24 μg/day, mean ± SEM): 457 ± 24 g | Day 2 BW (FIT mRNA [2]; ICV 24 μg/day, mean ± SEM): 468 ± 23 g | Day 3 BW (FIT mRNA [2]; ICV 24 μg/day, mean ± SEM): 473 ± 23 g | Day 4 BW (FIT mRNA [2]; ICV 24 μg/day, mean ± SEM): 477 ± 22 g | Day 0 BW (FIT mRNA [2]; [10]): 465 ± 24 g | Day 1 ΔBW (FIT mRNA [2]; [11]): -7.8 ± 3.6 g | Day 2 ΔBW (FIT mRNA [2]; [11]): 3.5 ± 3.7 g | Day 3 ΔBW (FIT mRNA [2]; [11]): 6.3 ± 3.5 g | Day 4 ΔBW (FIT mRNA [2]; [11]): 12.0 ± 4.1 g | FIT gene expression (FIT mRNA [3]): 8.4 ± 0.6 arbitrary units | Δ FI (MC4R; 24 hr food intake post minus pre injection): −0.02 ± 0.01 g/g BW | 24 hr FI post injection (MC4R; food intake after MT II or vehicle injection): 0.04 ± 0.01 g/g BW | 24 hr FI pre injection (MC4R; food intake, during ICV infusion, before MT II or vehicle injection): 0.06 ± 0.01 g/g BW | Day 0 BW (FIT mRNA [4]; [12]): 404 ± 31 g | Day 4 BW (FIT mRNA [4]; [12]): 386 ± 24 g | Food Intake (FIT mRNA [4]; [12]): 81.1 ± 10.3 g | Δ BW (FIT mRNA [4]; [12]): -17.3 ± 8.9 g | Δ TEE (FIT mRNA [4]; not pair fed): -21 ± 17 kJ/day/kg | Post TEE (FIT mRNA [4]; not pair fed, total energy expenditure after ICV infusion): 492 ± 61 kJ/day/kg | Pre TEE (FIT mRNA [4]; not pair fed, total energy expenditure before ICV infusion): 513 ± 62 kJ/day/kg | Day 0 BW (FIT mRNA [4]; [13]): 357 ± 9 g | Day 4 BW (FIT mRNA [4]; [13]): 317 ± 7^a g | Food Intake (FIT mRNA [4]; [13]): 39.1 ± 3.2^a g | Δ BW (FIT mRNA [4]; [13]): -39.7 ± 9.9 g | Post TEE (FIT mRNA [4]; pair fed, after ICV infusion): 456 ± 30^c kJ/day/kg | Pre TEE (FIT mRNA [4]; pair fed, before ICV infusion): 556 ± 59 kJ/day/kg | Δ TEE (FIT mRNA [4]; pair fed): -100 ± 28 kJ/day/kg | Cumulative food intake, Day 1 Food (FIT mRNA [5]; [6]): 8.9 ± 0.5^a g | Cumulative food intake, Day 2 Food (FIT mRNA [5]; [7]): 17.3 ± 1.0^a g | Cumulative food intake, Day 3 Food (FIT mRNA [5]; [8]): 27.3 ± 1.5^a g | Cumulative food intake, Day 4 Food (FIT mRNA [5]; [9]): 38.7 ± 2.7 g | Day 1 BW (FIT mRNA [5]; ICV 24 μg/day, mean ± SEM): 188 ± 9 g | Day 2 BW (FIT mRNA [5]; ICV 24 μg/day, mean ± SEM): 188 ± 9 g | Day 3 BW (FIT mRNA [5]; ICV 24 μg/day, mean ± SEM): 187 ± 9 g | Day 4 BW (FIT mRNA [5]; ICV 24 μg/day, mean ± SEM): 187 ± 9 g | Day 0 BW (FIT mRNA [5]; [10]): 191 ± 9 g | Day 1 ΔBW (FIT mRNA [5]; [11]): -3.8 ± 0.7 g | Day 2 ΔBW (FIT mRNA [5]; [11]): -3.3 ± 0.8 g | Day 3 ΔBW (FIT mRNA [5]; [11]): -4.0 ± 1.6 g | Day 4 ΔBW (FIT mRNA [5]; [11]): -3.5 ± 1.7 g

From patent US20080105961A1, “Ligands of the Molecule Fit (Agt-121) and their Pharmaceutical Use” (priority 2004, published 2008)
